{
  "source": "the kinase profiling compilation of Christmann-Franck et al. (2016)",
  "experiment_in_all_cases": "radiometric filter-binding kinase assay, Kinase HotSpot",
  "settings_in_all_cases": "compound 0.5 µM; ATP 10 µM",
  "key": {"ADRBK1 (human)": {"biological_target": "ADRBK1 (human) (UniProt P25098)"}, "BRSK2 (human)": {"biological_target": "BRSK2 (human) (UniProt Q8IWQ3)"}, "BTK (human)": {"biological_target": "BTK (human) (UniProt Q06187)"}, "CAMK1 (human)": {"biological_target": "CAMK1 (human) (UniProt Q14012)"}, "CAMK1D (human)": {"biological_target": "CAMK1D (human) (UniProt Q8IU85)", "sequence (Q8IU85 whole entry, looked up)": "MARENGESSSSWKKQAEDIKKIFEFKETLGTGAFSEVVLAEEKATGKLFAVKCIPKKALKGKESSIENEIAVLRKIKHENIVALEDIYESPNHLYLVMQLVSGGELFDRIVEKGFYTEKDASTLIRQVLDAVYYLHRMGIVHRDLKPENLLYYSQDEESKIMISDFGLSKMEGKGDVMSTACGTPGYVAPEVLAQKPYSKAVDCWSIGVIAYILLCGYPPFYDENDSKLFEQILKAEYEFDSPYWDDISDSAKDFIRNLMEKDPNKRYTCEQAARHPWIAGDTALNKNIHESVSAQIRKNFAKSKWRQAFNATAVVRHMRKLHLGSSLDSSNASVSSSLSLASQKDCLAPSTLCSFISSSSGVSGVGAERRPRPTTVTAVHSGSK"}, "CDC42BPA (human)": {"biological_target": "CDC42BPA (human) (UniProt Q5VT25)"}, "CDK1 CCNA2 (human)": {"biological_target": "CDK1 CCNA2 (human) (UniProt P06493+P20248)"}, "CDK1 CCNB1 (human)": {"biological_target": "CDK1 CCNB1 (human) (UniProt P06493+P14635)"}, "CDK4 CCND3 (human)": {"biological_target": "CDK4 CCND3 (human) (UniProt P30281+P11802)", "sequence (P11802 whole entry, looked up)": "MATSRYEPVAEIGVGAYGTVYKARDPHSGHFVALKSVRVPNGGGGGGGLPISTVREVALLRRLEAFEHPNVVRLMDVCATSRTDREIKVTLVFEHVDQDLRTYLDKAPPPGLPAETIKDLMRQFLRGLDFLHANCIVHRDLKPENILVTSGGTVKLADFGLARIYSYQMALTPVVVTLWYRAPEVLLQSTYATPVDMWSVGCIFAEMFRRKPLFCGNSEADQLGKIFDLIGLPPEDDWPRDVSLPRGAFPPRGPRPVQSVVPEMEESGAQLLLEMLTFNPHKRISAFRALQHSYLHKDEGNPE", "sequence (P30281 whole entry, looked up)": "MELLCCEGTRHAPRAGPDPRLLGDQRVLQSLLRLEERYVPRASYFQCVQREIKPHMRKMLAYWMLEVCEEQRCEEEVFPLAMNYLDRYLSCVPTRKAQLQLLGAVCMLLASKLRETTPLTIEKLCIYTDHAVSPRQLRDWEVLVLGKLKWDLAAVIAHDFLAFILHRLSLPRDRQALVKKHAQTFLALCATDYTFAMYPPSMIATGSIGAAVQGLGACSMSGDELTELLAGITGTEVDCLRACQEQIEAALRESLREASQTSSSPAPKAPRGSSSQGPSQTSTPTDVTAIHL"}, "CDK6 CCND3 (human)": {"biological_target": "CDK6 CCND3 (human) (UniProt P30281+Q00534)", "sequence (P30281 whole entry, looked up)": "as above", "sequence (Q00534 whole entry, looked up)": "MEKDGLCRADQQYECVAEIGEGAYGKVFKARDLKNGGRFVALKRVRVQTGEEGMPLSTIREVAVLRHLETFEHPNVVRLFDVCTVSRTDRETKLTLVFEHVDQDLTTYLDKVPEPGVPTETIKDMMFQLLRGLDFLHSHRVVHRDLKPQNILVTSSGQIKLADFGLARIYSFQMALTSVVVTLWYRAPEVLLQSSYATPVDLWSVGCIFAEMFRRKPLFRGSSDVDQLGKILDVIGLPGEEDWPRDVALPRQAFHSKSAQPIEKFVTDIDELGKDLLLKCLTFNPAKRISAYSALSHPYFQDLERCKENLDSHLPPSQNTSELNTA"}, "CDK9 CCNT1 (human)": {"biological_target": "CDK9 CCNT1 (human) (UniProt P50750+O60563)"}, "CSNK1G2 (human)": {"biological_target": "CSNK1G2 (human) (UniProt P78368)", "sequence (P78368 whole entry, looked up)": "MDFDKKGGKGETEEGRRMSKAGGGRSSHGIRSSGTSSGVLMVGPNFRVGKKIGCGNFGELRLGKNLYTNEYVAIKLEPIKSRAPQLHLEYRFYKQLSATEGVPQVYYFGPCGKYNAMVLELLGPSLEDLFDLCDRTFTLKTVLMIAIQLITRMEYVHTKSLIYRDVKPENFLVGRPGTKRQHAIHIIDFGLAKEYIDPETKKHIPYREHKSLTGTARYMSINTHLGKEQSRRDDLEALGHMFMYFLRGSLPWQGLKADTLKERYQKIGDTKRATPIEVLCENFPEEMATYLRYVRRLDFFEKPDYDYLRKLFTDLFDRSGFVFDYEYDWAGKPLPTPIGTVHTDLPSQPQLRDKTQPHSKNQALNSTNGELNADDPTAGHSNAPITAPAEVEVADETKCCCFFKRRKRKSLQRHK"}, "CSNK1G3 (human)": {"biological_target": "CSNK1G3 (human) (UniProt Q9Y6M4)"}, "EPHA5 (human)": {"biological_target": "EPHA5 (human) (UniProt P54756)"}, "FGFR2 (human)": {"biological_target": "FGFR2 (human) (UniProt P21802)"}, "GRK5 (human)": {"biological_target": "GRK5 (human) (UniProt P34947)"}, "HCK (human)": {"biological_target": "HCK (human) (UniProt P08631)"}, "HIPK3 (human)": {"biological_target": "HIPK3 (human) (UniProt Q9H422)"}, "IGF1R (human)": {"biological_target": "IGF1R (human) (UniProt P08069)"}, "MAP3K14 (human)": {"biological_target": "MAP3K14 (human) (UniProt Q99558)"}, "MATK (human)": {"biological_target": "MATK (human) (UniProt P42679)"}, "NTRK2 (human)": {"biological_target": "NTRK2 (human) (UniProt Q16620)"}, "PAK3 (human)": {"biological_target": "PAK3 (human) (UniProt O75914)"}, "PKN1 (human)": {"biological_target": "PKN1 (human) (UniProt Q16512)"}, "PLK1 (human)": {"biological_target": "PLK1 (human) (UniProt P53350)", "sequence (P53350 whole entry, looked up)": "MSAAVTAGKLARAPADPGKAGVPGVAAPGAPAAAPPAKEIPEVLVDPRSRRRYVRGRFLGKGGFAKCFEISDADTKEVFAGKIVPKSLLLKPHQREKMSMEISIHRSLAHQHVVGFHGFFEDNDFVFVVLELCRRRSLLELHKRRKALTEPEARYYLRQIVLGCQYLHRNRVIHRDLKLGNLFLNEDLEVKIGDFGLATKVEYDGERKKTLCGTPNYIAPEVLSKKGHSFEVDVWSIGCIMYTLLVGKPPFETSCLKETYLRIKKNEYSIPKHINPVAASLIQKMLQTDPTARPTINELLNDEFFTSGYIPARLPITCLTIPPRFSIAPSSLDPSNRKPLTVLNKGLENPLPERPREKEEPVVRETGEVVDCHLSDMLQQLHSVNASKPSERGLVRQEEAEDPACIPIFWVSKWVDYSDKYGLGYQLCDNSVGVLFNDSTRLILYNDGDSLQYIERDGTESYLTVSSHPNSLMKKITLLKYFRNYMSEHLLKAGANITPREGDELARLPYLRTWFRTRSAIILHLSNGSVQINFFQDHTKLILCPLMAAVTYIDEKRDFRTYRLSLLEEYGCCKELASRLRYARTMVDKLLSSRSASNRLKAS"}, "PLK3 (human)": {"biological_target": "PLK3 (human) (UniProt Q9H4B4)", "sequence (Q9H4B4 whole entry, looked up)": "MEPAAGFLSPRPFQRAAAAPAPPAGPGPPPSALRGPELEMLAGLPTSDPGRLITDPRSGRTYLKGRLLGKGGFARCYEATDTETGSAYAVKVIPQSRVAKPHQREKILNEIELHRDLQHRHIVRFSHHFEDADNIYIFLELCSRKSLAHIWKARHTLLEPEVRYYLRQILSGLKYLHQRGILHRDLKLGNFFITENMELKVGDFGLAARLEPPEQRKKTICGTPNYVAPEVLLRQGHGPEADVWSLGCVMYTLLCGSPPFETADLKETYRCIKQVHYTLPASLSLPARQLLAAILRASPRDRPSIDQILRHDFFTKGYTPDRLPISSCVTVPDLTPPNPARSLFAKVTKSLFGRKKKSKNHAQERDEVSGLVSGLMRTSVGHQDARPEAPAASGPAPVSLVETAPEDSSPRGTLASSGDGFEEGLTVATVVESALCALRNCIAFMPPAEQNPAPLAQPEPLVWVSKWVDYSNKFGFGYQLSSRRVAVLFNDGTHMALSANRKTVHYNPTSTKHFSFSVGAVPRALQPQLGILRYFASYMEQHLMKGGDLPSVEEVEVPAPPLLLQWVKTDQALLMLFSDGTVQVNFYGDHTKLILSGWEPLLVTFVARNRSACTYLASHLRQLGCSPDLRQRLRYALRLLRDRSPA"}, "PRKCI (human)": {"biological_target": "PRKCI (human) (UniProt P41743)"}, "[1]": {"test_system": "PRKCQ (human), Q04759 [P330L]", "sequence (Q04759 whole entry P330L, looked up)": "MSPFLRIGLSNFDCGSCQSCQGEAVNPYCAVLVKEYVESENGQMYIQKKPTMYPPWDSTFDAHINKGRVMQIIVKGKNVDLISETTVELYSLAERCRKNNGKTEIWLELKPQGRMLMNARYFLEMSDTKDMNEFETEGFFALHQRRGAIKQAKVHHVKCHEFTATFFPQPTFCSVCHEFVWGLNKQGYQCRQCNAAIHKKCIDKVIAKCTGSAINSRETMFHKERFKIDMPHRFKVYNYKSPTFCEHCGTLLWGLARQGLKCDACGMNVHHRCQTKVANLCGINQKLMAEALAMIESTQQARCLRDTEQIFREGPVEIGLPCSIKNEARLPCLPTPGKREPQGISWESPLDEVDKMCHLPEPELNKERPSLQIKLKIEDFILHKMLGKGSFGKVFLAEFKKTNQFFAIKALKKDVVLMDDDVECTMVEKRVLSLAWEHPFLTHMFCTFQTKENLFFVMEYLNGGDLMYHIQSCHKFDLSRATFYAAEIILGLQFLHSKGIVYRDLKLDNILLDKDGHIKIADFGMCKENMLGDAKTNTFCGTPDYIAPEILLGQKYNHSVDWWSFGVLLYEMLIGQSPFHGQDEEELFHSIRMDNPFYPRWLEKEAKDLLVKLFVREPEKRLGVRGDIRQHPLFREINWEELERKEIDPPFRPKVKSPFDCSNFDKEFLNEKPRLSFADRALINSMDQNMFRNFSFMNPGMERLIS"}, "PRKX (human)": {"biological_target": "PRKX (human) (UniProt P51817)"}, "RPS6KA5 KD2 (human)": {"biological_target": "RPS6KA5 KD2 (human) (UniProt O75582)"}, "SIK2 (human)": {"biological_target": "SIK2 (human) (UniProt Q9H0K1)"}, "SLK (human)": {"biological_target": "SLK (human) (UniProt Q9H2G2)"}, "SRPK3 (human)": {"biological_target": "SRPK3 (human) (UniProt Q9UPE1)", "sequence (Q9UPE1 whole entry, looked up)": "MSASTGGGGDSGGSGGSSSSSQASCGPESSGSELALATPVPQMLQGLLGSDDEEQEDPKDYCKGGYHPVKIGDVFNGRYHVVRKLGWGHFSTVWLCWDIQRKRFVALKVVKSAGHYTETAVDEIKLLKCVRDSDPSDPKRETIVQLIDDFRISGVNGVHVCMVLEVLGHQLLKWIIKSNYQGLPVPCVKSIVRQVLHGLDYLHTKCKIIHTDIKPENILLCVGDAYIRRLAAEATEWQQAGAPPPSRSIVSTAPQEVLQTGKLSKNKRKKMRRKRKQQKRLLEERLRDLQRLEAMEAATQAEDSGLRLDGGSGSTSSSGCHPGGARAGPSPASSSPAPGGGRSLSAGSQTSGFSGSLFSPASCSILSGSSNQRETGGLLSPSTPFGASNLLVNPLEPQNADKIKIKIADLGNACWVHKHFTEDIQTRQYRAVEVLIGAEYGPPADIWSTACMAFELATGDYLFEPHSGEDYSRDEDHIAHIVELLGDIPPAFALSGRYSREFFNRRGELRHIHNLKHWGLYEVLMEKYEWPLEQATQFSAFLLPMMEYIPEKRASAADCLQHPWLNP"}, "STK17A (human)": {"biological_target": "STK17A (human) (UniProt Q9UEE5)"}, "STK33 (human)": {"biological_target": "STK33 (human) (UniProt Q9BYT3)"}, "SYK (human)": {"biological_target": "SYK (human) (UniProt P43405)"}, "TAOK1 (human)": {"biological_target": "TAOK1 (human) (UniProt Q7L7X3)"}, "TBK1 (human)": {"biological_target": "TBK1 (human) (UniProt Q9UHD2)"}, "TGFBR2 (human)": {"biological_target": "TGFBR2 (human) (UniProt P37173)", "sequence (P37173 whole entry, looked up)": "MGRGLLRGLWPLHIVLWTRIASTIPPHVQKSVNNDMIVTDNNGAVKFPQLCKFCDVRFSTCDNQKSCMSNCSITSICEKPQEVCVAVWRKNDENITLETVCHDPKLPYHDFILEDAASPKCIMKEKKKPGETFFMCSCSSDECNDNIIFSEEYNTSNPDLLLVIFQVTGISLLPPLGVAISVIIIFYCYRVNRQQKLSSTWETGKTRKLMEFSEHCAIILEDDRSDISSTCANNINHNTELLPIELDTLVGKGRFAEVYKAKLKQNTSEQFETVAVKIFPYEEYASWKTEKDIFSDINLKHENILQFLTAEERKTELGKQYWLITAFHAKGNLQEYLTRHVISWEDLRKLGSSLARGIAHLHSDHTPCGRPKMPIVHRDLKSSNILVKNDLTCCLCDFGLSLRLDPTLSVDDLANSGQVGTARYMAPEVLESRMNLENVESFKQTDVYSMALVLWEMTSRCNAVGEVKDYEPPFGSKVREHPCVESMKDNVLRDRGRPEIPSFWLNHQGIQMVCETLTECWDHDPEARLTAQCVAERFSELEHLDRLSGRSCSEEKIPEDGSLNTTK"}, "TYRO3 (human)": {"biological_target": "TYRO3 (human) (UniProt Q06418)"}},
  "data": [
    {"molecule": "COc1ccc2c(c1)/C(=C/c1cnc[nH]1)C(O)=N2", "values": [
      {"measurement": "residual activity", "setting": "ADRBK1 (human)", "value": 107, "unit": "%"},
      {"measurement": "residual activity", "setting": "BRSK2 (human)", "value": 61.7, "unit": "%"},
      {"measurement": "residual activity", "setting": "BTK (human)", "value": 101, "unit": "%"},
      {"measurement": "residual activity", "setting": "CAMK1 (human)", "value": 103, "unit": "%"},
      {"measurement": "residual activity", "setting": "CAMK1D (human)", "value": 98.3, "unit": "%"},
      {"measurement": "residual activity", "setting": "CDC42BPA (human)", "value": 98.5, "unit": "%"},
      {"measurement": "residual activity", "setting": "CDK1 CCNA2 (human)", "value": 43.7, "unit": "%"},
      {"measurement": "residual activity", "setting": "CDK1 CCNB1 (human)", "value": 35.9, "unit": "%"},
      {"measurement": "residual activity", "setting": "CDK4 CCND3 (human)", "value": 49.6, "unit": "%"},
      {"measurement": "residual activity", "setting": "CDK6 CCND3 (human)", "value": 28, "unit": "%"},
      {"measurement": "residual activity", "setting": "CDK9 CCNT1 (human)", "value": 67.4, "unit": "%"},
      {"measurement": "residual activity", "setting": "CSNK1G2 (human)", "value": 95.3, "unit": "%"},
      {"measurement": "residual activity", "setting": "CSNK1G3 (human)", "value": 103, "unit": "%"},
      {"measurement": "residual activity", "setting": "EPHA5 (human)", "value": 86.2, "unit": "%"},
      {"measurement": "residual activity", "setting": "FGFR2 (human)", "value": 84, "unit": "%"},
      {"measurement": "residual activity", "setting": "GRK5 (human)", "value": 97, "unit": "%"},
      {"measurement": "residual activity", "setting": "HCK (human)", "value": 96.1, "unit": "%"},
      {"measurement": "residual activity", "setting": "HIPK3 (human)", "value": 101, "unit": "%"},
      {"measurement": "residual activity", "setting": "IGF1R (human)", "value": 94.4, "unit": "%"},
      {"measurement": "residual activity", "setting": "MAP3K14 (human)", "value": 96.9, "unit": "%"},
      {"measurement": "residual activity", "setting": "MATK (human)", "value": 92.3, "unit": "%"},
      {"measurement": "residual activity", "setting": "NTRK2 (human)", "value": 30.1, "unit": "%"},
      {"measurement": "residual activity", "setting": "PAK3 (human)", "value": 99.2, "unit": "%"},
      {"measurement": "residual activity", "setting": "PKN1 (human)", "value": 87.4, "unit": "%"},
      {"measurement": "residual activity", "setting": "PLK1 (human)", "value": 103, "unit": "%"},
      {"measurement": "residual activity", "setting": "PLK3 (human)", "value": 93, "unit": "%"},
      {"measurement": "residual activity", "setting": "PRKCI (human)", "value": 96.9, "unit": "%"},
      {"measurement": "residual activity", "setting": "[1]", "value": 109, "unit": "%"},
      {"measurement": "residual activity", "setting": "PRKX (human)", "value": 87.9, "unit": "%"},
      {"measurement": "residual activity", "setting": "RPS6KA5 KD2 (human)", "value": 89.2, "unit": "%"},
      {"measurement": "residual activity", "setting": "SIK2 (human)", "value": 100, "unit": "%"},
      {"measurement": "residual activity", "setting": "SLK (human)", "value": 81.9, "unit": "%"},
      {"measurement": "residual activity", "setting": "SRPK3 (human)", "value": 96.2, "unit": "%"},
      {"measurement": "residual activity", "setting": "STK17A (human)", "value": 42.3, "unit": "%"},
      {"measurement": "residual activity", "setting": "STK33 (human)", "value": 74.7, "unit": "%"},
      {"measurement": "residual activity", "setting": "SYK (human)", "value": 93.9, "unit": "%"},
      {"measurement": "residual activity", "setting": "TAOK1 (human)", "value": 82.3, "unit": "%"},
      {"measurement": "residual activity", "setting": "TBK1 (human)", "value": 70.7, "unit": "%"},
      {"measurement": "residual activity", "setting": "TGFBR2 (human)", "value": 107, "unit": "%"},
      {"measurement": "residual activity", "setting": "TYRO3 (human)", "value": 99.2, "unit": "%"}
    ]}
  ]
}
